Measurements reported in article PMC12040169 (PLOS Biology, 2025).

Experiment: in vitro
Conditions: human, hela cells

Molecule O=C(Nc1ccc(OC(=O)N2CCCCC2)cc1)N1CCCCC1 [CBK090060] has a viability at 28.5 h, 10 µM of 88.6%.

Same assay, conditions: human, hela cells, % viability

Compared with COc1nccnc1OC1CCN(Cc2ccc(C(F)(F)F)cc2)CC1 [CBK084243], CCn1cc(NC(=O)CC2CCN(Cc3cccc(C(F)(F)F)c3)CC2)cn1 [CBK286118] is higher in viability at 28.5 h, 10 µM: 79.3% for the first, 89.9% for the second.

Compared with OCn1nc(-c2ccc(Cl)cc2Cl)oc1=S [CBK288410], Clc1ccc2c(c1)NC(c1ccco1)N1CCN=C21 (stereo not shown) [CBK284479] is lower in viability at 28.5 h, 10 µM: 107% for the first, 84.8% for the second.

First: COCC(C)NS(=O)(=O)c1cc(C)ccc1OC (stereo not shown) [CBK270037]
Second: COc1ccc(S(=O)(=O)Nc2nccnc2-c2cccs2)cc1OC [CBK050774]
The viability at 28.5 h, 10 µM of the first is lower: 85.6% for the first, 104% for the second.

First: Cc1ccc(C)c(NC(=O)C(Cc2ccccc2)N2C(=O)c3cc(Cl)c(Cl)cc3C2=O)c1 (stereo not shown) [CBK264232]
Second: O=C(O)c1cc(-c2ccc(/C=C3\SC(=S)N(Cc4cccnc4)C3=O)o2)ccc1Cl [CBK264712]
The viability at 28.5 h, 10 µM of the first is lower: 109% for the first, 112% for the second.

Going from CCCCCn1c(O)nnc1SCc1csc(CS(=O)(=O)c2ccc(Cl)cc2)n1 [CBK007176] to CCCCc1noc(C(C)S(=O)(=O)Cc2csc(CCCC)n2)n1 (stereo not shown) [CBK305431], the viability at 28.5 h, 10 µM rises from 80.7% to 110%.

Going from CC(C)(C)NCC(O)c1ccc(O)c2c1C1CCC2CC1 (stereo not shown) [CBK013269C] to CC(C)(C)NCC(O)COc1cccc2c1C[C@H](O)[C@H](O)C2 (stereo partly shown) [CBK011678], the viability at 28.5 h, 10 µM rises from 93.9% to 102%.

First: CC(Cn1nnc2ccccc21)C(=O)O (stereo not shown) [CBK264727]
Second: CCNc1cncc(-c2ccccc2)n1 [CBK065847]
The viability at 28.5 h, 10 µM of the first is higher: 117% for the first, 85.5% for the second.

Compared with Cc1no[n+]([O-])c1COc1cccc(/C=C2\N=C(c3ccccc3)OC2=O)c1 [CBK263454], Cc1onc(-c2ccccc2)c1NC(=O)Nc1cc2ccccc2c(Br)n1 [CBK105489] is higher in viability at 28.5 h, 10 µM: 96.3% for the first, 96.5% for the second.

Compared with NC1=NN(c2ccccc2)C(=O)C1 [CBK144946], O=C(Nc1ccccc1)Nc1nc(=O)n(-c2ccccc2)s1 [CBK070710] is lower in viability at 28.5 h, 10 µM: 97.3% for the first, 93% for the second.

Going from Cc1cc(OCC(=O)Nc2ccc(S(=O)(=O)N3CCOCC3)cc2)ccc1[N+](=O)[O-] [CBK268114] to NS(=O)(=O)c1ccc(Nc2ncccc2[N+](=O)[O-])cc1 [CBK261724], the viability at 28.5 h, 10 µM falls from 113% to 91.6%.

COc1ccc(NC(=O)N2CCCCC2c2cccnc2)cc1 (stereo not shown) [CBK293947] and O=C(/C=C/c1cccnc1)Nc1ccccc1N1CCNCC1 [CBK034136T] are the same in viability at 28.5 h, 10 µM: 102% for the first, 102% for the second.

Compared with CC1(C)CC(=O)c2sc(NC(=O)CN3C(=O)CCC3=O)nc2C1 [CBK287558], Cc1cc(Cl)cc(Cl)c1S(=O)(=O)Nc1nc2c(s1)C(=O)CC(C)(C)C2 [CBK200034] is higher in viability at 28.5 h, 10 µM: 98.2% for the first, 104% for the second.

Going from Cc1cc(NC(=O)CN2CCN(c3ccc(F)cc3)CC2)nc2c1c(=O)oc1ccccc12 [CBK291232] to COc1cc(OC)nc(C(NC(=O)C2CCN(Cc3cn(C)c4ccccc34)CC2)c2ccc(F)cc2)n1 (stereo not shown) [CBK148185], the viability at 28.5 h, 10 µM rises from 88.8% to 90.7%.

Going from Nc1ncc(-c2ccc3c(c2)OCO3)nc1N1CCC(C(=O)O)CC1 [CBK064074] to CN(C)CCNC(=O)c1cccc(-c2cnc(N)c(N3CCN(C)CC3)n2)c1 [CBK063393], the viability at 28.5 h, 10 µM falls from 101% to 95%.

First: C[C@H]1[C@@H]2[C@@H](O)C([C@H](C)C(=O)NCc3ccccn3)CC[C@@]2(C)CC[C@@H]1NC(=O)C1CC1 (stereo partly shown) [CBK289445]
Second: CC1(C)CCCC2=C1CC(C(=O)O)C(C(=O)NCc1cccnc1)C2 (stereo not shown) [CBK286795]
The viability at 28.5 h, 10 µM of the first is higher: 97.2% for the first, 83.3% for the second.

First: CC(=O)Nc1ccc(/C=N/NC(=O)c2nnn(-c3nonc3N)c2-c2ccccc2)cc1 [CBK262790]
Second: O=C(Cc1ccccc1)Nc1ccccc1C(=O)NCc1cccnc1 [CBK269228]
The viability at 28.5 h, 10 µM of the first is lower: 94.9% for the first, 96.1% for the second.

Compared with Cc1[nH]c2ccc(CNC(=O)NC3CCCc4cn[nH]c43)cc2c1C (stereo not shown) [CBK305488], O=C(NCCO)c1ccc(CSc2nc3sc4c(c3c(=O)[nH]2)CCCC4)cc1 [CBK263522] is higher in viability at 28.5 h, 10 µM: 89.8% for the first, 96.6% for the second.

First: Cc1ncsc1CCN(C)C(=O)Cn1nc(C)c2ccccc2c1=O [CBK306893]
Second: Cc1nn(CCC(=O)NCc2ccco2)c(C)c1Cl [CBK269961]
The viability at 28.5 h, 10 µM of the first is lower: 86.3% for the first, 88.8% for the second.

Compared with Cc1nc(N)sc1-c1nnc(SC/C=C/c2ccccc2)n1C [CBK269383], Cc1nc2ccccn2c1-c1csc(Nc2cccc(C(=O)O)c2)n1 [CBK263303B] is higher in viability at 28.5 h, 10 µM: 81.7% for the first, 92.7% for the second.

First: O=C(Nc1cccc(Cl)c1Cl)c1cnccn1 [CBK288243]
Second: Cc1cccnc1C(Cc1ccsc1)NC(=O)Cn1ccnc1 (stereo not shown) [CBK284802]
The viability at 28.5 h, 10 µM of the first is higher: 105% for the first, 94.1% for the second.

Compared with CC(=O)NC(c1nccs1)C1CCN(C(=O)C2CC2C)CC1 (stereo not shown) [CBK282232], CN(Cc1cnc(-c2ccncc2)cn1)C1CCN(C(=O)OC(C)(C)C)CC1 [CBK172979] is lower in viability at 28.5 h, 10 µM: 101% for the first, 93.4% for the second.

First: c1ccc(-c2cc3nccc(-c4ccccc4)n3n2)cc1 [CBK287871]
Second: Oc1nc2ccccc2nc1-c1ccccc1 [CBK016193]
The viability at 28.5 h, 10 µM of the first is lower: 93.7% for the first, 94.3% for the second.

Compared with Cc1cc(CN(C)Cc2ccc(-n3ccnc3C)cc2)n[nH]1 [CBK281989], COCCNc1nc(-c2cccc(F)c2)cn2ccnc12 [CBK066465] is higher in viability at 28.5 h, 10 µM: 97.6% for the first, 98.4% for the second.

Compared with CC(=O)N1CCn2nc(C(=O)N(CCO)Cc3ccccc3)cc2C1 [CBK306769], O=C(NCCc1c[nH]cn1)N1CCN(Cc2ccccc2)CC1 [CBK155629] is higher in viability at 28.5 h, 10 µM: 89.3% for the first, 96.4% for the second.

Compared with O=C1NC2(CCN(C(=O)c3ccc(C(F)(F)F)c(F)c3)CC2)Oc2ccc(-c3ccccc3)cc21 [CBK115841], Cc1ccc(C(=O)N2CCC(Cc3ccccc3-c3ccccc3)(C(=O)N(C)C)CC2)s1 [CBK285677] is higher in viability at 28.5 h, 10 µM: 99.7% for the first, 107% for the second.

Going from Cc1nc2ccccn2c1CN1CCC(Oc2ccc(F)cc2)CC1 [CBK281803] to C=Cn1cc(CN2C3CCC2CC(O)(c2ccc(F)cc2)C3)c(C)n1 (stereo not shown) [CBK282742], the viability at 28.5 h, 10 µM falls from 90.1% to 80.6%.

Compared with CC(C)(C)c1ccc(-c2nc(N)cc3ccccc23)cc1 [CBK085720], COc1ccc(-c2cc(-c3nnc(S)n3-c3ccccc3Cl)[nH]n2)cc1 [CBK265880] is lower in viability at 28.5 h, 10 µM: 109% for the first, 100% for the second.

Compared with COCCOc1ccc(C(=O)N2CCN(c3ccccc3)CC2)cc1 [CBK304626], Cn1cccc1C(=O)N1CCC(Cc2ccccc2)CC1 [CBK200182] is lower in viability at 28.5 h, 10 µM: 106% for the first, 102% for the second.

Compared with O=C(O)c1cccc(S(=O)(=O)Nc2ccccc2C(=O)NCc2ccccc2)c1 [CBK296697], Cc1ccc(CSCCNS(=O)(=O)c2cccc([N+](=O)[O-])c2)cc1 [CBK267864] is higher in viability at 28.5 h, 10 µM: 106% for the first, 108% for the second.

Compared with Cc1cc(C)c2nonc2c1S(=O)(=O)NCCN1CCCCC1CO (stereo not shown) [CBK306966], CC(C)N1CCC(C(=O)NC(=O)NCCc2ccc3c(c2)OCO3)CC1 [CBK034804] is higher in viability at 28.5 h, 10 µM: 94.8% for the first, 96.6% for the second.

Compared with CCOC(=O)c1sc(-c2ccccc2)nc1OCc1ccccc1Cl [CBK067727], CCOC(=O)c1sc(-c2cccc(C(F)(F)F)c2)nc1O [CBK075064] is lower in viability at 28.5 h, 10 µM: 95.8% for the first, 92% for the second.

Going from COc1ccc2nc(N/C(N)=N/C(=O)COc3ccc(Cl)cc3)nc(C)c2c1 [CBK263924] to COc1ccc(-c2cc(C(=O)NCC3CCNCC3)cnc2-c2ccc(Cl)cc2)cn1 [CBK036700], the viability at 28.5 h, 10 µM rises from 95% to 105%.

Compared with CN1CCC(N2CCN(C(=O)NCC3COc4ccccc4O3)CC2)CC1 (stereo not shown) [CBK155881], O=S1(=O)CCN(CC2COc3ccccc3O2)CC1 (stereo not shown) [CBK074789] is lower in viability at 28.5 h, 10 µM: 107% for the first, 88.5% for the second.

First: O=S(=O)(Cc1ccccc1)c1cc2c(N3CCNCC3)nccc2s1 [CBK200017C]
Second: COc1ccccc1N1CCN(c2nccc3sc(S(=O)(=O)NCc4ccc(C(F)(F)F)c(F)c4)cc23)CC1 [CBK038270C]
The viability at 28.5 h, 10 µM of the first is lower: 91.9% for the first, 93.8% for the second.

Compared with CC(C)c1ccc(C(C)NC(=O)c2cccn(CC(=O)NC3CCCC3)c2=O)cc1 (stereo not shown) [CBK286018], CCC(c1ccc(F)cc1)N(C)C(=O)Cn1cccc(C(=O)Nc2ccc(F)cc2)c1=O (stereo not shown) [CBK286061] is lower in viability at 28.5 h, 10 µM: 91.3% for the first, 88.7% for the second.

First: Cc1nnnn1CCC(=O)NCCc1cn2ccccc2n1 [CBK306816]
Second: O=C1CC(Cc2ccccc2)C(=O)N1CCCn1ccnc1 (stereo not shown) [CBK265123G]
The viability at 28.5 h, 10 µM of the first is higher: 121% for the first, 97.4% for the second.

Compared with CN(C)CCNC(=O)c1cncc(-c2ccc(C(=O)N3CCOCC3)cc2)c1 [CBK158619], CN(CC(O)CN1CCOCC1)C(=O)c1cc2sccc2[nH]1 (stereo not shown) [CBK306437] is higher in viability at 28.5 h, 10 µM: 95.6% for the first, 95.8% for the second.

Going from S=c1[nH]cc(-c2ccc(Br)cc2)o1 [CBK288498] to CCOC(=O)CNC(=O)c1cc2ccccc2c(=O)o1 [CBK058083], the viability at 28.5 h, 10 µM rises from 92.8% to 97.9%.

First: CCC1CN(Cc2ccccc2)CCN1c1cncc(Cl)n1 (stereo not shown) [CBK003645]
Second: Cc1cccc(CN2CC[C@@H]3[C@H](C2)[C@@H](c2ccsc2)CN3C(=O)c2ccccc2F)c1 [CBK285659]
The viability at 28.5 h, 10 µM of the first is higher: 112% for the first, 109% for the second.

First: CCOc1cc(CNCc2ccc(C(=O)O)cc2)ccc1OC [CBK270029C]
Second: COc1cc(CNc2cncc(-c3cccs3)n2)cc(OC)c1OC [CBK065526]
The viability at 28.5 h, 10 µM of the first is lower: 89.7% for the first, 106% for the second.

Compared with COCCC(=O)N1C[C@@H](c2ccccc2F)[C@@]2(CCCC(=O)N2)C1 [CBK283360], Cc1ccc(S(=O)(=O)CC(=O)N2CCC3(CCN(C(=O)Cc4c[nH]c5ccccc45)C3)C2)cc1 (stereo not shown) [CBK131443] is lower in viability at 28.5 h, 10 µM: 90.4% for the first, 84% for the second.

Going from COCc1cc(C)nc(SCC(=O)O)c1C#N [CBK270463] to CCCN1CC(NC(=O)c2cc(COc3cccc(F)c3)[nH]n2)CC1=O (stereo not shown) [CBK306912], the viability at 28.5 h, 10 µM falls from 88.2% to 82.2%.

First: COc1ccc(NC2=N[C@H]3[C@@H](O)[C@H](O)C[C@H](C(=O)N(C)Cc4ccccc4)[C@H]3S2)cc1 [CBK288950]
Second: N=c1n(CCN2CCCCC2)c2ccccc2n1CC(O)COc1ccccc1 (stereo not shown) [CBK262451C]
The viability at 28.5 h, 10 µM of the first is higher: 96.7% for the first, 88.5% for the second.

Same assay, conditions: human, hela cells, % viability, bulk resorufin, single well

Molecule O=C1NC(=O)N(c2ccc(O)cc2)C(=O)/C1=C/c1cc(Cl)c(OCc2ccccc2)c(Cl)c1 [CBK265385] has a viability at 28.5 h, 10 µM of 78.1%.
